“Also recorded” adds a separate entry of the source. Residues, ends and D or L forms follow the SMILES beside them. *: point of attachment. Cbz = O=C(OCc1ccccc1)*
Columns and labels:
APOBEC3B [1] = experiment: PMA induction of APOBEC3B mRNA in MCF10A cells (RT-qPCR); format: cell-based, human; conditions: 10 μg/mL cyclohexamide with PMA
Procedure: A panel of immortalized normal human epithelial cells lines and breast cancer cell lines was treated with PMA or equal amounts of DMSO as a negative control, and previously validated reverse transcription quantitative PCR (RT-qPCR) assays were used to measure mRNA levels of all eleven human APOBEC family members. APOBEC3B mRNA was induced specifically by PMA treatment of several lines including the immortalized normal breast epithelial cell line MCF10A (FIG. 1A and FIG. 6). Under standard cell culture conditions, MCF10A expresses low levels of APOBEC3B and APOBEC3F, even lower levels of APOBEC3G and APOBEC3H, high levels of APOBEC3C, and undetectable levels of all other APOBEC family members.
APOBEC3B was induced with as little as 1 ng/mL PMA, and its induction was dose responsive and near maximal at 25 ng/mL PMA (FIG. 1B, histogram). APOBEC3B mRNA levels correlated with a rise in steady-state protein levels as measured by immunoblotting with a rabbit anti-APOBEC3B monoclonal antibody (described in U.S. Provisional Patent Application No. 62/186,109. filed Jun. 29, 2015) and with enzymatic activity as measured by a gel-based single-stranded DNA cytosine deamination assay (FIG. 1B). […] APOBEC3B protein and activity levels lagged shortly behind mRNA levels and persisted through the duration of the time course (FIG. 1C, immunoblot and polyacrylamide gel). APOBEC3B upregulation may be a direct result of signal transduction as the kinetics of upregulation were not affected by simultaneously treating cells with the protein translation inhibitor cyclohexamide (FIG. 1D).
(§1) For induction experiments, 2.5×10^5 cells were plated in a 6-well plate 1 day prior to drug treatment. PMA was then added to the media and incubated at 37° C. with 5% CO2 for six hours unless otherwise indicated. Cells were harvested, RNA was extracted, and RT-qPCR was performed as previously reported (Refsland et al. 2010, Nucleic Acids Res 38:4274-4284). For experiments utilizing inhibitors, cells were pretreated with inhibitors 30 minutes prior to PMA induction (25 ng/mL). PMA (Thermo Fisher Scientific, Inc., Waltham, Mass.), cyclohexamide (Acros Organics, Thermo Fisher Scientific, Inc., Waltham, Mass.), Gö6983 (Cayman Chemical co., Ann Arbor, Mich.), LY294002 (EMD Chemicals, Merck KGaA, Darmstadt, Germany), U0126 (EMD Chemicals, Merck KGaA, Darmstadt, Germany), AEB071 (Medchemexpress, Monmouth Junction, N.J.), Gö6976 (Enzo Life Sciences, Inc., Farmingdale, N.Y.), BAY 11-7082 (R&D Systems, INc., Minneapolis, Minn.), and MG132 (Thermo Fisher Scientific, Inc., Waltham, Mass.) were stored as recommended. NIKi/Compound 31 was synthesized as described (Li et al., 2013, Bioorganic & Medicinal Chemistry Letters 23:1238-1244).

APOBEC3B [2] = experiment: inhibitor pretreatment before PMA-induced APOBEC3B upregulation in MCF10A cells (RT-qPCR); format: cell-based, human; conditions: for suppression of PMA-induced APOBEC3B mRNA induction: 30-minute pretreatment with inhibitor, then PMA 25 ng/mL six hours
Procedure: PMA is a well-known agonist of PKC, but it also affects other cellular processes. To determine whether APOBEC3B induction by PMA occurs through PKC signal transduction or an alternative mechanism, we leveraged a panel of existing PKC inhibitors that each vary with respect to class selectivity. MCF10A cells were pre-treated for 30 minutes with varying concentrations of the pan-PKC inhibitor Gö6983 (Gschwendt et al., FEBS Lett. 392:77-80, 1996) and then treated for six hours with PMA (25 ng/mL). […] As additional controls, MCF10A cells were pretreated in parallel with the phosphoinositol 3 kinase (PI3K) inhibitor, LY294002, and the mitogen-activated protein kinase kinase (MEK) inhibitor, U0126, prior to PMA induction (FIGS. 2B and 2C).
as §1

MCF10A cells = experiment: morphology and viability of MCF10A cells under inhibitor; format: cell-based, human; conditions: low concentrations of Gö6983 (5 μM range), data not shown
Procedure: PMA is a well-known agonist of PKC, but it also affects other cellular processes. To determine whether APOBEC3B induction by PMA occurs through PKC signal transduction or an alternative mechanism, we leveraged a panel of existing PKC inhibitors that each vary with respect to class selectivity. MCF10A cells were pre-treated for 30 minutes with varying concentrations of the pan-PKC inhibitor Gö6983 (Gschwendt et al., FEBS Lett. 392:77-80, 1996) and then treated for six hours with PMA (25 ng/mL). […] APOBEC3B was suppressed to background levels with 5 μM Gö6983, as well as higher concentrations (FIG. 2A). […] As additional controls, MCF10A cells were pretreated in parallel with the phosphoinositol 3 kinase (PI3K) inhibitor, LY294002, and the mitogen-activated protein kinase kinase (MEK) inhibitor, U0126, prior to PMA induction (FIGS. 2B and 2C).

TNFα = TNFα mRNA expression in PMA-treated MCF10A cells (RT-qPCR); format: cell-based, human; conditions: titration of inhibitor, compared with APOBEC3B inhibition
Procedure: FIG. 3. Non-canonical NFκB signaling is responsible for APOBEC3B upregulation by PMA. […] MCF10A cells were treated with PMA following a 30-minute pretreatment with the indicated concentrations of each inhibitor. APOBEC3B mRNA expression is reported as the mean of three independent RT-qPCR reactions normalized to TBP (error bars report SD from triplicate assays). (C) Histogram depicting NFκB subunit mRNA levels in MCF10A cells treated with PMA or vehicle control. Expression was determined by RNA-seq and is reported as FKPM and normalized to TBP. […] MCF10A cells were treated with PMA following treatment with varying concentrations of TPCA-1. TNFα (light) and APOBEC3B (dark) mRNA levels are reported as the mean of three independent RT-qPCR reactions normalized to TBP (error bars report SD from triplicate assays). The dotted lines denote previously reported in vitro IC50 values for IKKα and IKKβ inhibition by TPCA-1 (Podolin et al., 2005, J Pharmacol Exp Ther. 312:373-381). (E) Histogram showing the kinetics of NFKBIA upregulation PMA. MCF10A cells were treated with PMA for the indicated times and mRNA values were quantified as in FIG. 3A. […]
Canonical signaling is known to require IKKβ, whereas non-canonical NFκB signaling is strictly dependent on IKKα-catalyzed phosphorylation of p100. […] As an additional control, TNFα, which is regulated by the canonical pathway, was analyzed.

[3] = tested on: IKKβ (canonical) over IKKα (non-canonical); conditions: reported in vitro IC50 values (Podolin et al., 2005); cited from earlier work
MCF-7 xenograft tumor = experiment: MCF-7 xenograft model for tamoxifen resistance; format: in vivo, mice
Excerpt: Human cancer cell lines, such as those listed above, and many others, upon engraftment into mice (e.g., subcutaneously, intraperotoneally, or otherwise), provide model systems for human tumor evolution, heterogeneity, and drug resistance. For instance, the estrogen-receptor positive breast cancer cell line MCF7L is a model for endocrine therapy and resistance.
The MCF-7 system may be adapted for evaluating APOBEC3 mutagenesis and drug resistance by creating derivative lines expressing low APOBEC3B (e.g., shRNA transduced) and high APOBEC3B (empty vector transduced) using lentivirus transduction followed by selection with 1 μg/ml puromycin for one week (Burns et al., 2013, Nature 494:366-370) and determine whether endogenous APOBEC3B contributes to the development of tamoxifen resistance. Five-million engineered cells are injected subcutaneously (xenografted) into athymic/ovariectomized nude-Foxnlnu (4-5 weeks old, The Jackson Laboratory, Bar Harbor, Me.). Each animal's drinking water is supplemented with 1 μM estradiol to provide continuous hormonal stimulation. The xenografted cells form large tumors within 150 days post-engraftment and depleting endogenous APOBEC3B causes a modest delay in tumor growth (dark square versus dark circle symbols in FIG. 8).

C[C@@H]1C[C@@H]([C@H](O)CC2CC(=O)NC(=O)C2)C(=O)[C@@H](C)C1 [cyclohexamide]
effect on kinetics of PMA-induced APOBEC3B upregulation (APOBEC3B [1]): not affected

COc1ccc2c(c1)c(C1=C(c3c[nH]c4ccccc34)C(=O)NC1=O)cn2CCCN(C)C [Gö6983]
suppression of PMA-induced APOBEC3B mRNA induction (APOBEC3B [2]): inhibited; also recorded: dose responsive suppression
concentration that suppressed APOBEC3B to background levels (APOBEC3B [2]; 30-minute pretreatment, PMA 25 ng/mL six hours): 5 µM
morphological defects or viability issues (MCF10A cells): No morphological defects or viability issues

Cn1c2ccccc2c2c3c(c4c5ccccc5n(CCC#N)c4c21)CNC3=O [Gö6976]
suppression of PMA-induced APOBEC3B mRNA induction (APOBEC3B [2]): inhibited

NC(=O)Nc1sc(-c2ccc(F)cc2)cc1C(N)=O [TPCA-1]
suppression of PMA-induced APOBEC3B mRNA induction (APOBEC3B [2]): near the IC50 for IKKα, not IKKβ; also recorded: inhibited closer to the reported IC50 of IKKα
inhibition of TNFα expression (TNFα): inhibited by much lower concentrations
selectivity for IKKβ (canonical) over IKKα (non-canonical) [3]: 22 fold

N#CC(=C(/N)Sc1ccccc1N)/C(C#N)=C(\N)Sc1ccccc1N [U0126]
suppression of PMA-induced APOBEC3B mRNA induction (APOBEC3B [2]): not and no suppression

CN(C)CCCn1cc(C2=C(c3c[nH]c4ccccc34)C(=O)NC2=O)c2ccccc21 [BIM-1, bisindolylmaleimide-1]
suppression of PMA-induced APOBEC3B mRNA induction (APOBEC3B [2]): inhibited; also recorded: nearly identical dose dependent suppression

CC/C(=C(\c1ccccc1)c1ccc(OCCN(C)C)cc1)c1ccccc1 [tamoxifen]
tumor growth of MCF-7 derivative lines (MCF-7 xenograft tumor; 500 μg 5 days/week subcutaneous injection, APOBEC3B high and low lines, mice): arrested the growth of both derivative lines for several months
development of resistance, cells expressing high levels of APOBEC3B (MCF-7 xenograft tumor; 500 μg 5 days/week subcutaneous, year-long experiment): invariably developed resistance
development of resistance, APOBEC3B low cell masses (MCF-7 xenograft tumor; 500 μg 5 days/week subcutaneous, year-long experiment, n=5 animals/condition): only one of the APOBEC3B low cell masses became resistant

CC(C)C[C@@H](C=O)NC(=O)[C@H](CC(C)C)NC(=O)[C@H](CC(C)C)NC(=O)OCc1ccccc1 [MG132] (Cbz-Leu-Leu-Leu-aldehyde)
suppression of PMA-induced APOBEC3B mRNA induction (APOBEC3B [2]): dose responsive inhibition; also recorded: decreased in a dose dependent manner

Cc1ccc(S(=O)(=O)/C=C/C#N)cc1 [BAY 11-7082]
suppression of PMA-induced APOBEC3B mRNA induction (APOBEC3B [2]): dose responsive inhibition; also recorded: strong dose-responsive drops

Source: patent publication US20180185302A1, “METHODS FOR DOWNREGULATING APOBEC3B” (Regents of the University of Minnesota, priority 2015, published 2018)
